Source: patent publication US7256012B2, “Fluorogenic protease substrates based on dye-dimerization” (3M Innovative Properties Company, priority 1997, dated 2007)

How the values were obtained:
Vibrio parahaemolyticus = assay: Use of fluorogenic protease substrate to detect Vibrio parahaemolyticus (cleavage by trypsin-like enzyme); assay type: cell-based; conditions: Vibrio parahaemolyticus cells, 1 mM EDTA, 50 mM phosphate buffer pH 7.2, incubated overnight; with vs without cells
Protocol: Vibrio parahaemolyticus used in these experiments was a quality control strain for the Transport Swab System of Becton Dickinson Microbiology Systems (Cockeysville, Md.). It was purchased from American Tissue Culture Collection (ATCC accession no. 49398). Cells were grown at 37° C. in nutrient broth with 3 percent sodium chloride. Ten ml of overnight culture was centrifuged. Broth was disposed and 3 ml of assay buffer added (1 mM EDTA, 50 mM phosphate buffer at pH 7.2) containing 50 μl of dual labeled conjugate of formula I, 1000 dilution (see Example 1, procedure for making labeled peptide). To ensure complete cleavage the reaction mixture was incubated overnight. Fluorescence intensity of cuvettes with and without cells was measured, (tracings C and D, respectively).

[1] = Fluorescence of the intact dual-labeled conjugate versus singly labeled counterpart; assay type: physicochemical
Source text: SEQ ID NO. 1 Val-Pro-Arg-Gly-Lys was synthesized by GeneMed Biotechnologies (South San Francisco, Calif.) and purified on reverse phase high performance liquid chromatography (HPLC). Its chemical identity was confirmed by Fast Atom Bombardment (FAB) mass spectroscopy and amino acid analysis. The peptide was reacted overnight with tetramethylrhodamine succimidyl ester in 0.1M sodium bicarbonate, pH 8.3. The reaction mixture was purified on reversed phase HPLC (C-18 column, particle size 15 μm, Waters Corp., Milford, Mass.). All chemically reactive dyes were purchased from Molecular Probes, Eugene, Oreg. The dye-peptide conjugate had the chemical structure of SEQ ID NO. 2 TMR-Val-Pro-Arg-Gly-Lys-TMR (designated T-VPRGK-T in FIG. 2) as shown in Formula I, below. A composite gradient of acetonitrile (ACN) in water was used to purify this conjugate. In a typical elution, the acetonitrile content was increased from 15% to 30% during the initial 15 minutes, followed by a 10-minute isocratic elution at 30% ACN, a 5-minute gradient to 50%, then 5-minute isocratic elution at 50% ACN. All solvents contained 0.1% trifluoroacetic acid. The molecular weight of the purified conjugate, determined by FAB mass spectroscopy, was 1379 which was the calculated molecular mass based on the elemental composition of C74H85N13O14.

Substance: TMR-Val-Pro-Arg-Gly-Lys-TMR (XPRGX; not fully specified; TMR dye at both ends) [T-VPRGK-T]
- change in fluorescence on cleavage by the trypsin-like enzyme (Vibrio parahaemolyticus): increase in fluorescence
- fluorescence of dual-labeled conjugate versus singly labeled counterpart [1]: substantially lower fluorescence than its singly labeled counterpart
